Experimental findings from patent US20240343717A1, “MICROBIOCIDAL PYRAZOLE DERIVATIVES” (SYNGENTA CROP PROTECTION AG, priority 2021, published 2024) are described below.

Bounds are passed on as bounds.

The test system of one data set is Sclerotinia sclerotiorum. In words: Sclerotinia sclerotiorum / liquid culture (cottony rot). Format: cell-based. The conditions noted are these: growth inhibition photometrically 3-4 days after application, read-out: control of Sclerotinia sclerotiorum. On the procedure:
Example B15: Sclerotinia sclerotiorum/Liquid Culture (Cottony Rot) Mycelia fragments of a newly grown liquid culture of the fungus are directly mixed into nutrient broth (PDB potato dextrose broth). After placing a (DMSO) solution of test compound into a microtiter plate (96-well format) the nutrient broth containing the fungal material is added. The test plates are incubated at 24° C. and the inhibition of growth is determined photometrically 3-4 days after application.

For data set [1], the system named is Glomerella lagenarium (Colletotrichum lagenarium). In words: Glomerella lagenarium (Colletotrichum lagenarium) / liquid culture (anthracnose). Conditions: Colletotrichum orbiculare, growth inhibition photometrically 3-4 days after application, read-out: control of Glomerella lagenarium. Format: cell-based. An outline of the steps:
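Cryo-stored conidia in potato dextrose broth were added to test compound in DMSO. Plates were incubated at 24° C, and growth inhibition was read photometrically 3-4 days after application.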

Data set [2] concerns Mycosphaerella graminicola (Septoria tritici). In words: Mycosphaerella graminicola (Septoria tritici) / liquid culture (Septoria blotch). Format: cell-based. Conditions: Zymoseptoria tritici, growth inhibition photometrically 4-5 days after application, read-out: control of Mycosphaerella graminicola. The procedure, abridged: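 Conidia suspended in potato dextrose broth and added to test compound supplied in DMSO in 96-well plates. Incubated at 24 °C, and growth inhibition read photometrically 4-5 days after application.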

Data set [3] has as its system Botryotinia fuckeliana (Botrytis cinerea). In words: Botryotinia fuckeliana (Botrytis cinerea) / liquid culture (gray mould). Format: cell-based. Conditions: growth inhibition photometrically 3-4 days after application, read-out: control of Botryotinia fuckeliana. The procedure, abridged: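 Conidia suspended in Vogels broth and added to compound dispensed from DMSO. Incubated at 24°C, with growth inhibition measured photometrically 3–4 days later.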

For a further data set, the system named is Fusarium culmorum. In words: microbe, parasite or virus in culture. Format: cell-based. The conditions noted are these: read-out: control of Fusarium culmorum.
Data set [4] relates to Monographella nivalis (Microdochium nivale). Kind of data set: Monographella nivalis (Microdochium nivale) / liquid culture (foot rot cereals). The conditions noted are these: growth inhibition photometrically 4-5 days after application, read-out: control of Monographella nivalis. Format: cell-based. An outline of the steps: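 Fungal conidia mixed directly into potato dextrose broth and added to test compound delivered in DMSO. Incubated at 24° C; growth inhibition read photometrically 4-5 days after application.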

Data set [5] deals with Mycosphaerella arachidis (Cercospora arachidicola). Kind of data set: Mycosphaerella arachidis (Cercospora arachidicola) / liquid culture (early leaf spot). Type of data set: cell-based. The conditions noted are these: growth inhibition photometrically 4-5 days after application, read-out: control of Mycosphaerella arachidis. The procedure:
Example B10: Mycosphaerella arachidis (Cercospora arachidicola)/Liquid Culture (Early Leaf Spot) Conidia of the fungus from cryogenic storage are directly mixed into nutrient broth (PDB potato dextrose broth). After placing a (DMSO) solution of test compound into a microtiter plate (96-well format), the nutrient broth containing the fungal spores is added. The test plates are incubated at 24° C. and the inhibition of growth is determined photometrically 4-5 days after application.

The subject of the next data set is Alternaria solani. In words: Alternaria solani / tomato / leaf disc (early blight). Conditions: foliar, tomato leaf disks, sprayed 2 days before inoculation, compared to untreated control. Type of data set: in vivo. On the procedure: Example B1: Alternaria solani/Tomato/Leaf Disc (Early Blight) Tomato leaf disks cv. Baby are placed on agar in multiwell plates (24-well format) and sprayed with the formulated test compound diluted in water. The leaf disks are inoculated with a spore suspension of the fungus 2 days after application. The inoculated leaf disks are incubated at 23° C./21° C.

Data set [6] concerns Phaeosphaeria nodorum (Septoria nodorum). Kind of data set: Phaeosphaeria nodorum (Septoria nodorum) / wheat / leaf disc preventative (glume blotch). Format: in vivo. The conditions noted are these: Parastagonospora nodorum, foliar, wheat leaf segments, inoculated 2 days after application. On the procedure:
Example B8: Phaeosphaeria nodorum (Septoria nodorum)/Wheat/Leaf Disc Preventative (Glume Blotch) Wheat leaf segments cv. Kanzler are placed on agar in a multiwell plate (24-well format) and sprayed with the formulated test compound diluted in water. The leaf disks are inoculated with a spore suspension of the fungus 2 days after application. The inoculated test leaf disks are incubated at 20° C. and 75% rh under a light regime of 12 h light/12 h darkness in a climate cabinet and the activity of a compound is assessed as percent disease control compared to untreated when an appropriate level of disease damage appears in untreated check leaf disks (5-7 days after application).

In a further data set the test system is Pyrenophora teres. In words: Pyrenophora teres / barley / leaf disc preventative (net blotch). Type of data set: in vivo. The conditions noted are these: foliar, barley leaf segments, inoculated 2 days after application. The procedure, abridged: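 Barley cv. Hasso leaf segments on agar sprayed with formulated compound, inoculated with spores 2 days later. Incubated at 20 °C, 65% rh, 12 h light/dark; disease control versus untreated assessed 5–7 days after application.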

The test system of data set [7] is Blumeria graminis f. sp. tritici (Erysiphe graminis f. sp. tritici). Kind of data set: Blumeria graminis f. sp. tritici / wheat / leaf disc preventative (powdery mildew on wheat). Format: in vivo. The conditions noted are these: foliar, wheat leaf segments, inoculated 1 day after application. The procedure:
Example B4: Blumeria graminis f. Sp. Tritici (Erysiphe graminis f. Sp. Tritici)/Wheat/Leaf Disc Preventative (Powdery Mildew on Wheat) Wheat leaf segments cv. Kanzler are placed on agar in a multiwell plate (24-well format) and sprayed with the formulated test compound diluted in water. The leaf disks are inoculated by shaking powdery mildew infected plants above the test plates 1 day after application. The inoculated leaf disks are incubated at 20° C. and 60% rh under a light regime of 24 h darkness followed by 12 h light/12 h darkness in a climate chamber and the activity of a compound is assessed as percent disease control compared to untreated when an appropriate level of disease damage appears on untreated check leaf segments (6-8 days after application).

Take `Cn1ncc(C(C)(CNC(=O)c2nnc(-c3ccc(F)cc3F)s2)c2cccc(C#N)n2)c1Cl` (stereo not shown) [Compound P-118, N-[2-(5-chloro-1-methyl-pyrazol-4-yl)-2-(6-cyano-2-pyridyl)propyl]-5-(2,4-difluorophenyl)-1,3,4-thiadiazole-2-carboxamide]: the inhibition of growth at 20 ppm (in the data set with Sclerotinia sclerotiorum; in data set [1]; in [2]; in [3]; with Fusarium culmorum; in [4]) was no less than 80% throughout. The inhibition of growth at 20 ppm in data set [5] is no less than 80%.

For the compound `Cn1ncc(C(C)(CNC(=O)c2nnc(-c3ccc(F)cc3F)s2)c2cccc(Cl)n2)c1Cl` (stereo not shown) [Compound P-25, N-[2-(5-chloro-1-methyl-pyrazol-4-yl)-2-(6-chloro-2-pyridyl)propyl]-5-(2,4-difluorophenyl)-1,3,4-thiadiazole-2-carboxamide], the inhibition of growth at 20 ppm (in the data set on Sclerotinia sclerotiorum; in data set [1]; in data set [2]; in data set [3]; in the data set on Fusarium culmorum; in data set [4]) was no less than 80% throughout. In data set [5], the inhibition of growth at 20 ppm is no less than 80%. Moreover, the pest or weed control at 200 ppm (with Alternaria solani; in data set [6]; in the data set on Pyrenophora teres; in [7]) was no less than 80% in each case.

Consider `COc1cnc(Cl)nc1C(C)(CNC(=O)c1cc(-c2ccc(F)cc2F)on1)c1cnn(C)c1` (stereo not shown) [Compound P-65, N-[2-(2-chloro-5-methoxy-pyrimidin-4-yl)-2-(1-methylpyrazol-4-yl)propyl]-5-(2,4-difluorophenyl) isoxazole-3-carboxamide], for which the melting point was in the range of 145 to 151 °C.

In the case of `Cn1cc(C(C)(CNC(=O)c2noc(-c3ccc(F)cc3F)n2)c2cccc(Cl)n2)cn1` (stereo not shown) [Compound P-83, N-[2-(6-chloro-2-pyridyl)-2-(1-methylpyrazol-4-yl)propyl]-5-(2,4-difluorophenyl)-1,2,4-oxadiazole-3-carboxamide], the inhibition of growth at 20 ppm (in data set [1]; in data set [2]; in data set [3]; in the data set with Fusarium culmorum; in data set [4]; in data set [5]) was no less than 80% in each case. Also, the pest or weed control at 200 ppm (with Alternaria solani; in data set [6]; in the data set on Pyrenophora teres; in data set [7]) was no less than 80% each time.

Compound `COc1ccc(C(C)(CNC(=O)c2cc(-c3ccc(F)cc3F)on2)c2cnn(C)c2)nc1Cl` (stereo not shown) [Compound P-14, N-[2-(6-chloro-5-methoxy-2-pyridyl)-2-(1-methylpyrazol-4-yl)propyl]-5-(2,4-difluorophenyl) isoxazole-3-carboxamide] came in with a melting point of 196 to 199 °C. The inhibition of growth at 20 ppm in data set [2] was no less than 80%.

Turning to `Cn1cc(C(C)(CNC(=O)c2nc(-c3ccc(F)cc3F)no2)c2cccc(Cl)n2)cn1` (stereo not shown) [Compound P-84, N-[2-(6-chloro-2-pyridyl)-2-(1-methylpyrazol-4-yl)propyl]-3-(2,4-difluorophenyl)-1,2,4-oxadiazole-5-carboxamide], the inhibition of growth at 20 ppm (in the data set on Sclerotinia sclerotiorum; in data set [1]; in data set [2]; in [3]; in the data set on Fusarium culmorum; in data set [4]) was no less than 80% each time. In addition, the inhibition of growth at 20 ppm in [5] is no less than 80%. The pest or weed control at 200 ppm (with Alternaria solani; in data set [6]; in the data set on Pyrenophora teres; in [7]) was no less than 80% in each case.

For `Cn1cc(C(C)(CNC(=O)c2cc(-c3ccc(F)cc3F)on2)c2cccc(C3CC3)n2)cn1` (stereo not shown) [Compound P-102, N-[2-(6-cyclopropyl-2-pyridyl)-2-(1-methylpyrazol-4-yl)propyl]-5-(2,4-difluorophenyl) isoxazole-3-carboxamide], the inhibition of growth at 20 ppm (with Sclerotinia sclerotiorum; in [1]; in data set [2]; in data set [3]; with Fusarium culmorum; in data set [4]) was no less than 80% throughout. Moreover, the inhibition of growth at 20 ppm in data set [5] is no less than 80%. Further, the pest or weed control at 200 ppm (in data set [6]; in the data set with Pyrenophora teres) was no less than 80% each time.

In the case of `Cn1cc(C(C)(CNC(=O)c2nnc(-c3ccc(F)cc3F)o2)c2cccc(Cl)n2)cn1` (stereo not shown) [Compound P-101, N-[2-(6-chloro-2-pyridyl)-2-(1-methylpyrazol-4-yl)propyl]-5-(2,4-difluorophenyl)-1,3,4-oxadiazole-2-carboxamide], the inhibition of growth at 20 ppm (with Sclerotinia sclerotiorum; in [1]; in [2]; in data set [3]; in data set [4]; in [5]) was no less than 80% each time. Moreover, the pest or weed control at 200 ppm (in the data set with Alternaria solani; in [6]; with Pyrenophora teres; in [7]) was no less than 80% each time.

Consider `CO/N=C(\C)c1ccnc(C(C)(CNC(=O)c2cc(-c3ccc(F)cc3F)on2)c2cnn(C)c2)c1` (stereo not shown) [Compound P-72, 5-(2,4-difluorophenyl)-N-[2-[4-[(E)-N-methoxy-C-methyl-carbonimidoyl]-2-pyridyl]-2-(1-methylpyrazol-4-yl)propyl]isoxazole-3-carboxamide], for which the melting point is 88 to 90 °C. Moreover, the inhibition of growth at 20 ppm in data set [4] was no less than 80%.

The compound `Cn1cc(C(C)(CNC(=O)c2cc(-c3ccc(F)cc3F)on2)c2cc(C#N)ccn2)cn1` (stereo not shown) [Compound P-63, N-[2-(4-cyano-2-pyridyl)-2-(1-methylpyrazol-4-yl)propyl]-5-(2,4-difluorophenyl) isoxazole-3-carboxamide] gave a melting point of 156 to 158 °C. Further, the inhibition of growth at 20 ppm in data set [2] is no less than 80%. In the data set on Pyrenophora teres, this compound showed a pest or weed control at 200 ppm of no less than 80%.

Turning to `Cn1ncc(C(C)(CNC(=O)c2cc(-c3ccc(F)cc3F)on2)c2cccc(C#N)n2)c1Cl` (stereo not shown) [Compound P-119, N-[2-(5-chloro-1-methyl-pyrazol-4-yl)-2-(6-cyano-2-pyridyl)propyl]-5-(2,4-difluorophenyl) isoxazole-3-carboxamide], the inhibition of growth at 20 ppm (in the data set on Sclerotinia sclerotiorum; in data set [1]; in [2]; in data set [3]; in the data set with Fusarium culmorum; in data set [4]) was no less than 80% throughout. Also, the inhibition of growth at 20 ppm in data set [5] is no less than 80%.

As usually defined, the pest or weed control is how far the test organism was held down. Higher therefore signals strong suppression. Broadly, the melting point is the temperature, or range, at which the solid turns liquid.
